# Where a name gives a salt, the structure may show the parent alone.
# Key:
# p-ERK in GP2D cells = assay: Assay of p-ERK inhibition in GP2D cells (HTRF); format: cell-based; conditions: Homo sapiens, 1 hour incubation
# Protocol: 2. Assay Process • 1) GP2D cells were inoculated in a transparent 96-well cell culture plate, and each well contained 80 μL of cell suspension and 8000 cells. The cell plate was inoculated in a carbon dioxide incubator at 37° C. overnight; • 2) 2 μL of the compound was weighed and added to 78 μL of the cell medium. After the mixture was mixed thoroughly, 20 μL of the solution of compound was weighed and added to the corresponding well of the cell plate. The cell plate was placed back to the carbon dioxide incubator and incubated for another 1 hour; • 3) After completion of the incubation, the cell supernatant was discarded. 50 μL of 1× cell lysate was added to each well. The mixture was incubated with shaking at room temperature for 30 minutes; • 4) Phospho-ERK1/2 Eu Cryptate antibody and Phospho-ERK1/2 d2 antibody were diluted 20-fold with detection buffer; • 5) 16 μL of cell lysate supernatant was weighed and added into each well of a new 384 white microwell plate, and then 2 μL of the diluted solution of Phospho-ERK1/2 Eu Cryptate antibody and 2 μL of the diluted solution of Phospho-ERK1/2 d2 antibody dilution were added. The mixture was incubated at room temperature for at least 4 hours; • 6) After completion of the incubation, HTRF was read with multi-label analyzer: excitation: 320 nm, emission: 615 nm, 665 nm; • 7). IC50 of the compounds to be assayed was calculated.
# KRAS^G12D = KRAS^G12D (Homo sapiens (Human), UniProt P01116, G12D); assay: Assay of the activity of inhibiting KRAS^G12D (TR-FRET, SOS/GTP nucleotide exchange); format: biochemical
# p-ERK in AGS cells = assay: Assay of p-ERK inhibition in AGS cells (HTRF); format: cell-based; conditions: Homo sapiens, 3 hours incubation
# Protocol: 1) AGS cells were inoculated in a transparent 96-well cell culture plate, and each well contained 80 μL of cell suspension and 10000 cells. The cell plate was inoculated in a carbon dioxide incubator at 37° C. overnight; • 2) After completion of the incubation, the cell supernatant was discarded. 80 μL of medium containing 0.02% serum was added to each well. The cell plate was incubated in a carbon dioxide incubator at 37° C. overnight; • 3) 2 μL of the compound was weighed and added to 78 μL of the cell medium. After the mixture was mixed thoroughly, 20 μL of the solution of compound was weighed and added to the corresponding well of the cell plate. The cell plate was placed back to the carbon dioxide incubator and incubated for another 3 hours; • 4) After completion of the incubation, the cell supernatant was discarded. 50 μL of 1× cell lysate was added to each well. The mixture was incubated with shaking at room temperature for 30 minutes; • 5) Phospho-ERK1/2 Eu Cryptate antibody and Phospho-ERK1/2 d2 antibody were diluted 20-fold with detection buffer; • 6) 16 μL of cell lysate supernatant was weighed and added into each well of a new 384 white microwell plate, and then 2 μL of the diluted solution of Phospho-ERK1/2 Eu Cryptate antibody and 2 μL of the diluted solution of Phospho-ERK1/2 d2 antibody dilution were added. The mixture was incubated at room temperature for at least 4 hours; • 7) After completion of the incubation, HTRF was read with multi-label analyzer: excitation: 320 nm, emission: 615 nm, 665 nm; • 8). IC50 of the compounds to be assayed was calculated.
# [1] = test system: KRAS G12D mutated GP2D cells; assay: Assay of inhibition of GP2D cell proliferation (CellTiter-Glo 3D); format: cell-based; conditions: Homo sapiens, 120 h, 5 days
# Protocol: The aim of this assay was to verify the inhibitory effect of the compounds of the present disclosure on the proliferation of KRAS G12D mutated GP2D human […] cancer cells.
# Cell line GP2D, DMEM medium, and penicillin/streptomycin antibiotics were purchased from Wisent; fetal bovine serum was purchased from Biosera; and CellTiter-Glo® 3D Cell Viability Assay (3D cell viability chemiluminescence assay reagent) reagent was purchased from Promega.
# GP2D cells were seeded in a 96-well U-bottom cell culture plate. Each well contained 80 μL of cell suspension containing 2000 GP2D cells. The cell plate was incubated overnight in a CO2 incubator. The compound to be assayed was serially diluted 5-fold with a pipette to the 8th concentration, i.e. diluted from 200 μM to 2.56 nM, to set up a double replicate well assay. 78 μL of medium was added to the middle plate, and then 2 μL per well of the gradient dilution compound was transferred to the middle plate according to the corresponding position. The mixture was mixed well and 20 μL per well was transferred to the cell plate. The concentration of compound transferred to the cell plate ranged from 1 μM to 0.0128 nM. The cell plate was incubated in a CO2 incubator for 5 days. At the end of the incubation of the plate with compounds added, 100 μL of cell viability chemiluminescence detection reagent per well was added to the plate and the plate was incubated at room temperature for 10 minutes to stabilize the luminescence signal. Reading was performed using a multi-label analyzer.
# The raw data were converted into an inhibition rate by using an equation (Sample−Min)/(Max−Min)*100%. IC50 value can be obtained by curve fitting with four parameters (“log(inhibitor) vs. response—Variable slope” model in GraphPad Prism).
# [2] = Pharmacokinetic evaluation of compounds in mice; format: in vivo, CD-1 mice; conditions: CD-1 male mice
# Protocol: Purpose of assay: To assay the pharmacokinetic data of the compounds in CD-1 mice in vivo.
# (§1) Compounds were mixed with vehicle 5% DMSO/95% (10% HP-β-CD aqueous solution), and the mixture was vortexed and sonicated to give 0.2 mg/mL-0.3 mg/mL clear solutions. CD-1 male mice aged 7 to 10 weeks were selected, and the candidate compound solution was administered intravenously. Whole blood was collected for a certain period of time to prepare the plasma. The drug concentration was analyzed by LC-MS/MS method and pharmacokinetic parameters were calculated by Phoenix WinNonlin software (Pharsight, USA).
# as §1, with “in water),” for “aqueous solution),”, “1.6 mg/mL to 4.0” for “0.2 mg/mL-0.3”, “orally administered.” for “administered intravenously.”, “prepare” for “prepare the”, “method,” for “method”
# plasma protein [3] = assay: Plasma protein binding (PPB), equilibrium dialysis, C plasma; format: in vitro ADME, monkey; conditions: 2 μM, 4 hr dialysis
# Protocol: (§2) Assay procedure: 995 μL of blank plasma of various genera were weighed, and 5 μL of assay compound working solution (400 μM) or warfarin working solution (400 μM) was added so that the final concentrations of the assay compound and warfarin in plasma sample were each 2 μM. The samples were mixed thoroughly. The final concentration of DMSO (the organic phase) was 0.5%. 50 μL of the plasma samples of the assay compound and warfarin were pipetted to a sample receiving plate (in triplicate), and the corresponding volume of corresponding blank plasma or buffer was added immediately, so that the final volume in each sample well was 100 μL, wherein the volume ratio of plasma:dialysis buffer was 1:1. 500 μL of stop solution was then added to these samples. These samples were used as T0 samples for determination of recovery and stability. […] All samples were subjected to protein precipitation, and then analyzed by LC/MS/MS. Bound rate and recovery rate of protein were calculated using the following formulae: % Unbound=100*F/T % Bound=100−% Unbound, % Recovery=100*(F+T)/T0 (wherein F is the peak area ratio of the compound in the dialysate after 4 h of dialysis; T is the peak area ratio of the compound in the plasma after 4 h of dialysis; T0 is the peak area ratio of the compound in the plasma sample at time zero).
# plasma protein [4] = assay: Plasma protein binding (PPB), equilibrium dialysis, R plasma; format: in vitro ADME, rat; conditions: 2 μM, 4 hr dialysis
# Protocol: as §2
# plasma protein [5] = assay: Plasma protein binding (PPB), equilibrium dialysis, H plasma; format: in vitro ADME, human; conditions: 2 μM, 4 hr dialysis
# Protocol: as §2
# plasma protein [6] = assay: Plasma protein binding (PPB), equilibrium dialysis, M plasma; format: in vitro ADME, mouse; conditions: 2 μM, 4 hr dialysis
# Protocol: as §2
# plasma protein [7] = assay: Plasma protein binding (PPB), equilibrium dialysis, D plasma; format: in vitro ADME, dog; conditions: 2 μM, 4 hr dialysis
# Protocol: as §2
# [8] = biological target: KRAS^G12D binding to c-Raf (Homo sapiens (Human), UniProt P01116, G12D); assay: SOS1-mediated binding of KRAS^G12D to effector protein c-Raf (TR-FRET); format: biochemical
# Chain of KRAS^G12D binding to c-Raf (P01116-2 other isoform, or with tags, fused parts or gaps G12D): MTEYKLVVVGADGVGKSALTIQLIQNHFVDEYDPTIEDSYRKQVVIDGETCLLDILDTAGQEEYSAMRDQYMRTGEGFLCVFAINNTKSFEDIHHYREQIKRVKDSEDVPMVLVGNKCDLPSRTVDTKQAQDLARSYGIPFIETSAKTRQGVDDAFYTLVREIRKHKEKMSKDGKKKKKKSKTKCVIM
# Chain of KRAS^G12D (P01116-2 other isoform, or with tags, fused parts or gaps G12D): as above
compound,measurement,setting,value
Cc1cc(N)c(F)c(-c2c(Cl)cc3c(N4CC5CCC(C4)N5)nc(OC[C@@]45CCCN4C[C@H](F)C5)nc3c2F)c1C(F)(F)F [Compound 022 formate],IC50,p-ERK in GP2D cells,11.6 nM
Nc1nc2c(-c3c(F)cc4c(N5CC6CCC(C5)N6)nc(OC[C@@]56CCCN5C[C@H](F)C6)nc4c3Cl)ccc(F)c2s1 [Compound 007 hydrochloride],IC50,KRAS^G12D,0.4 nM
"Oc1cc(-c2c(Cl)cc3c(N4CC5CCC(C4)N5)nc(OC[C@@]45CCCN4C[C@H](F)C5)nc3c2F)c2ccccc2c1 (single isomer, unassigned) [Compound 027 hydrochloride]",IC50,KRAS^G12D,38.6 nM
CCc1c(F)ccc2cc(O)cc(-c3ccc4c(N5CC6CCC(C5)N6)nc(OC[C@@]56CCCN5C[C@H](F)C6)nc4c3F)c12 [Compound 006 hydrochloride],IC50,p-ERK in AGS cells,67.1 nM
same,IC50,[1],2.04 nM
Nc1nc2c(-c3c(Cl)cc4c(N5CC6CCC(C5)N6)nc(OC[C@@]56CCCN5C[C@H](F)C6)nc4c3F)ccc(F)c2s1 [Compound 004],IC50,KRAS^G12D,0.5 nM
same,IC50,p-ERK in AGS cells,31.4 nM
Cc1cc(N)nc(-c2c(Cl)cc3c(N4CC5CCC(C4)N5)nc(OC[C@@]45CCCN4C[C@H](F)C5)nc3c2F)c1C(F)(F)F [Compound 018 trifluoroacetate],IC50,p-ERK in GP2D cells,1.6 nM
Oc1cc(-c2ccc3c(N4CC5CCC(C4)N5)nc(OC[C@@]45CCCN4C[C@H](F)C5)nc3c2F)c2ccccc2c1 [Compound 005 hydrochloride],IC50,KRAS^G12D,0.1 nM
same,IC50,p-ERK in AGS cells,147 nM
C#Cc1c(F)ccc2cc(O)cc(-c3ccc4c(N5CC6CCC(C5)N6)nc(OC[C@@]56CCCN5C[C@H](F)C6)nc4c3F)c12 [Compound 010 hydrochloride],AUCu,"[2]; PO, 5.54 mg/kg, AUCu = AUC0-inf *Unbound PPB (Mouse)",2.5 nM·h
same,AUC(0-inf),"[2]; mouse, plasma, PO, 5.54 mg/kg",125 nM·h
same,Cmax,"[2]; mouse, plasma, PO, 5.54 mg/kg",0.054 µM
same,bioavailability,"[2]; mouse, plasma, PO, 5.54 mg/kg",5.1%
same,half-life,"[2]; mouse, plasma, PO, 5.54 mg/kg",1.6 h
same,IC50,p-ERK in GP2D cells,0.055 nM
same,IC50,[1],3.6 nM
N#Cc1c(N)sc2c(F)ccc(-c3c(Cl)cc4c(N5CC6CCC(C5)N6)nc(OC[C@@]56CCCN5C[C@H](F)C6)nc4c3F)c12 [Compound 012 formate],IC50,p-ERK in GP2D cells,0.71 nM
same,IC50,[1],0.94 nM
C#Cc1c(F)ccc2cc(O)cc(-c3ccc4c(N5CC6CCC(C5)N6)nc(OC[C@@]56CCCN5C[C@H](F)C6)nc4c3F)c12 [Compound 010],AUC(0-inf),"[2]; mouse, plasma, IV, 1.03 mg/kg",457 nM·h
same,C0,"[2]; mouse, plasma, IV, 1.03 mg/kg",0.712 µM
same,Vd,"[2]; mouse, plasma, IV, 1.03 mg/kg",25 L/kg
same,clearance,"[2]; mouse, plasma, IV, 1.03 mg/kg",3.68 L/h/kg
same,half-life,"[2]; mouse, plasma, IV, 1.03 mg/kg",8.1 h
same,Unbound PPB C,plasma protein [3],1.9%
same,Unbound PPB R,plasma protein [4],1.3%
same,Unbound PPB H,plasma protein [5],2.9%
same,Unbound PPB M,plasma protein [6],2.0%
same,Unbound PPB D,plasma protein [7],2.2%
Oc1cc(-c2c(Cl)cc3c(N4CC5CCC(C4)N5)nc(OC[C@@]45CCCN4C[C@H](F)C5)nc3c2F)c2ccccc2c1 [Compound 001 formate],IC50,KRAS^G12D,9.2 nM
same,IC50,p-ERK in AGS cells,292 nM
Oc1cc(-c2ccc3c(N4CC5CCC(C4)N5)nc(OC[C@@]45CCCN4C[C@H](F)C5)nc3c2F)c2c(F)c(F)ccc2c1 [Compound 011 hydrochloride],IC50,p-ERK in GP2D cells,0.016 nM
same,IC50,[1],6.2 nM
Nc1nc2c(-c3c(F)cc4c(N5CC6CCC(C5)N6)nc(OC[C@@]56CCCN5C[C@H](F)C6)nc4c3F)ccc(F)c2s1 [Compound 020 formate],IC50,KRAS^G12D,6.6 nM
CCc1c(F)ccc2cc(O)cc(-c3ccc4c(N5CC6CCC(C5)N6)nc(OC[C@@]56CCCN5C[C@H](F)C6)nc4c3Cl)c12 [Compound 024 formate],IC50,p-ERK in GP2D cells,4.4 nM
same,IC50,[1],16 nM
"C#Cc1c(F)ccc2cc(N)cc(-c3c(Cl)cc4c(N5CC6CCC(C5)N6)nc(OC[C@@]56CCCN5C[C@H](F)C6)nc4c3F)c12 (single isomer, unassigned) [Compound 016B]",IC50,p-ERK in GP2D cells,0.67 nM
same,IC50,[8],6.23 nM
Oc1cc(-c2c(F)cc3c(N4CC5CCC(C4)N5)nc(OC[C@@]45CCCN4C[C@H](F)C5)nc3c2Cl)c2ccccc2c1 [Compound 008 hydrochloride],IC50,KRAS^G12D,1.3 nM
C#Cc1c(F)ccc2cc(N)cc(-c3c(F)cc4c(N5CC6C=CC(C5)N6)nc(OC[C@@]56CCCN5C[C@H](F)C6)nc4c3F)c12 [Compound 034],IC50,[8],22.5 nM
Cc1cc(N)nc(-c2ccc3c(N4CC5CCC(C4)N5)nc(OC[C@@]45CCCN4C[C@H](F)C5)nc3c2F)c1C(F)(F)F [Compound 019 hydrochloride],IC50,p-ERK in GP2D cells,21.4 nM
Nc1cc(-c2ccc3c(N4CC5CCC(C4)N5)nc(OC[C@@]45CCCN4C[C@H](F)C5)nc3c2F)c2c(F)c(F)ccc2c1 [Compound 013 hydrochloride],IC50,p-ERK in GP2D cells,0.88 nM

# From patent US20240174692A1, “PYRIMIDINE AROMATIC RING COMPOUNDS” (Medshine Discovery Inc., priority 2021, published 2024)
